Results on 19 compounds are retold here after PubChem BioAssay AID602207 (Sanford-Burnham Center for Chemical Genomics, 2012).

The structures appear in SMILES notation. Active and inactive are the calls of the source.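 Rule for the calls: active = IC50 below 100 µM in the TR-FRET assay, unless also active in the caspase-3 counter assay; inactive = the rest, including compounds also active in caspase-3.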

This assay addresses Caspase-3 (Homo sapiens) (UniProt P42574). Nature of the assay: caspase-3 inhibitors as false-positive filter, SAR follow-up, counter-screen for UBC13 polyubiquitin inhibitor project, biochemical, luminescence, Caspase-Glo 3/7, set 3 (AID 602207). The following applies: recombinant caspase-3, Caspase-Glo luminescence, 60 min.

Caspase-3 (Homo sapiens), sequence (P42574 whole entry, looked up): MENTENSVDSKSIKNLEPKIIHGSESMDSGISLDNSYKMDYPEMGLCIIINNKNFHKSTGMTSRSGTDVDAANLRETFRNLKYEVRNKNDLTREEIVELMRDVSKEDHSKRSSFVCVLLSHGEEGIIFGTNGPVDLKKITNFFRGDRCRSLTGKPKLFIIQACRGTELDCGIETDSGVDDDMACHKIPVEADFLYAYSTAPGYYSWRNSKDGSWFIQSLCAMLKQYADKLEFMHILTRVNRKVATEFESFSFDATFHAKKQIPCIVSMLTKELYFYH

Consider `O=C(CCCCCN1C(=O)c2ccccc2C1=O)NCCc1ccccc1`, for which the IC50 was > 100 µM (inactive).
The result for `Fc1ccccc1N1CCN(c2ncnc3c2nc2n3CCCC2)CC1` reads > 100 µM (inactive); that for `c1nc(N2CCC(N3CCCCC3)CC2)c2nc3n(c2n1)CCCC3`, > 100 µM (inactive); that for `COc1ccc(Cl)cc1NC(=O)C1CCN(c2ncnc3c2nc2n3CCCCC2)CC1`, > 100 µM (inactive).
The result for `Cc1ccc(Cl)cc1N1CCN(c2ncnc3c2nc2n3CCCC2)CC1` reads > 100 µM (inactive); that for `Cc1ccc(NC(=O)C2CCN(c3ncnc4c3nc3n4CCCCC3)CC2)c(Cl)c1`, > 100 µM (inactive); that for `CCOc1ccc(CCNC(=O)CCCCCN2C(=O)c3ccccc3C2=O)cc1OCC`, > 100 µM (inactive).
The result for `CC1CN(S(=O)(=O)c2ccc(NC(=O)CCCCCN3C(=O)c4ccccc4C3=O)cc2)CC(C)O1` (centres undefined) reads > 100 µM (inactive); that for `COc1cc(Cl)c(C)cc1NC(=O)C1CCN(c2ncnc3c2nc2n3CCCCC2)CC1`, > 100 µM (inactive).
For the compound `Cc1ccc(NC(=O)C2CCN(c3ncnc4c3nc3n4CCCCC3)CC2)cc1F`, the IC50 was > 100 µM (inactive).
Under `O=C(Nc1ccc(CN2CCCCC2)cc1)C1CCN(c2ncnc3c2nc2n3CCCCC2)CC1` stands > 100 µM (inactive); under `COc1cc(OC)c(NC(=O)C2CCN(c3ncnc4c3nc3n4CCCCC3)CC2)cc1Cl`, > 100 µM (inactive).
The result for `O=C(Nc1cccc(Cl)c1)C1CCN(c2ncnc3c2nc2n3CCCCC2)CC1` reads > 100 µM (inactive); that for `Cc1cc(Cl)ccc1NC(=O)C1CCN(c2ncnc3c2nc2n3CCCCC2)CC1`, > 100 µM (inactive); that for `Cc1ccc(NC(=O)C2CCN(c3ncnc4c3nc3n4CCCCC3)CC2)cc1C`, > 100 µM (inactive).
The result for `COc1ccc(NC(=O)C2CCN(c3ncnc4c3nc3n4CCCCC3)CC2)cc1Cl` reads > 100 µM (inactive); that for `c1ccc(CN2CCN(c3ncnc4c3nc3n4CCCC3)CC2)cc1`, > 100 µM (inactive); that for `Cc1c(Cl)cccc1NC(=O)C1CCN(c2ncnc3c2nc2n3CCCCC2)CC1`, > 100 µM (inactive).
As for `O=C(Nc1cc(F)ccc1F)C1CCN(c2ncnc3c2nc2n3CCCCC2)CC1`, the IC50 is > 100 µM (inactive).

The term IC50 denotes the concentration at which inhibition is half-maximal.
